Where “and” joins values, the source holds several entries; their conditions need not be identical. Equal entries are not always repeated.
Experiments:
[1] = Metabolic stability in liver microsomes; assay type: in vitro ADME; conditions: 5 μM
Method: Microsomal preparations from human and animal species were used at a protein concentration of 1 mg/mL, and the cofactor NADPH was added to a final concentration of 1 mM to assay for CYP and flavin-containing monooxygenase (FMO) lability. GE81112A at 5 μM was incubated for 20 min at 37°C. The enzymatic reaction was initiated by a rapid temperature increase in a water bath at 37°C. It was stopped by a rapid temperature decrease in an ice bath at 0°C and subsequent addition of 5 volumes of precooled acetonitrile (500 μL). Loss of parent GE81112A concentration, as a percentage, was determined using LC-MS/MS measurements, where 100% was the measurement at time zero.

[2] = system: Salmonella enterica serovar Typhimurium; experiment: Ames II test; assay type: cell-based; conditions: with and without S9
Method: The test was carried out with and without metabolic activation by S9 liver homogenate from rats that had been pretreated with Arcolor, S9 mix. The Salmonella enterica serovar Typhimurium tester strains included the mixed strains TA7001 to TA7006 for detection of base pair substitutions and TA98 for detection of frameshift mutations ([18]). Bacterial cultures (from frozen stocks) were grown overnight and tested for genotype conformation. Test compound diluted in DMSO was tested at 16, 50, 160, 500, 1,600, and 5,000 μg/mL with each strain, both in the presence and in the absence of the exogenous hepatic microsomal fraction (S9) from Aroclor 1254-treated rats (obtained as described above). […] Then, 2.8 mL of a pH indicator solution (Merck KGaA, Darmstadt, Germany) (bromocresol purple) containing trace amounts of histidine and biotin (ready-to-use commercial solution) was added to each well, and all samples were then transferred into a 384-well plate. […] Toxicity was assessed by evaluating the density of growth of the background lawn of bacteria. Mutagenicity was assessed by counting the number of wells with color changes (purple or yellow) or the number of easily visible colonies (revertants).

[3] = PK in mice after a single i.v. administration; assay type: in vivo, male Swiss mice; conditions: 10 mg/kg i.v.
Method: In order to determine the PK parameters of GE81112A, a single i.v. dose of 10 mg/kg in solution was administered to male Swiss mice, and plasma, urine, and tissue concentrations were monitored over 24 h (Fig. 2). After i.v. dosing, the different parameters were investigated in more detail. A high distribution of GE81112A in the kidney points toward its excretion via urine. Therefore, urinary tract infections (UTIs) represent the most probable scope of application (Table 2).
Plasma, urine, and tissue concentrations and PK parameters for GE81112 were assessed after a single i.v. administration of a 10-mg/kg solution to male Swiss mice. Briefly, 5 mL/kg of a 2-mg/mL solution of GE81112A was administered i.v. to fed male Swiss mice (weight of 20 g, obtained from Janvier; n = 24 mice). Samples were collected at 0.08, 0.25, 0.5, 1, 2, 4, 8, and 24 h postadministration for bioanalysis. Bioanalytical samples (plasma, urine, and tissue) were analyzed for the concentration of GE81112 using an exploratory LC-MS/MS method, and PK parameters were estimated using the PK software Phoenix WinNonlin v6.4, using a noncompartmental model and a linear trapezoidal interpolation calculation. The studies were ethically approved by the German governmental authority (protocol number FH/2002; Regierungspräsidium Darmstadt).

CYP3A4 = molecular target: T1, CYP3A4 (Homo sapiens, UniProt P08684); experiment: CYP inhibition IC50 shift assay in human liver microsomes; assay type: in vitro ADME; conditions: concentrations of up to 50 μM
T1 construct: the reaction mixture was prepared with a human liver microsome concentration of 0.1 mg/mL; from tissue; host or cells: human liver microsomes
T1 sequence (P08684 whole entry): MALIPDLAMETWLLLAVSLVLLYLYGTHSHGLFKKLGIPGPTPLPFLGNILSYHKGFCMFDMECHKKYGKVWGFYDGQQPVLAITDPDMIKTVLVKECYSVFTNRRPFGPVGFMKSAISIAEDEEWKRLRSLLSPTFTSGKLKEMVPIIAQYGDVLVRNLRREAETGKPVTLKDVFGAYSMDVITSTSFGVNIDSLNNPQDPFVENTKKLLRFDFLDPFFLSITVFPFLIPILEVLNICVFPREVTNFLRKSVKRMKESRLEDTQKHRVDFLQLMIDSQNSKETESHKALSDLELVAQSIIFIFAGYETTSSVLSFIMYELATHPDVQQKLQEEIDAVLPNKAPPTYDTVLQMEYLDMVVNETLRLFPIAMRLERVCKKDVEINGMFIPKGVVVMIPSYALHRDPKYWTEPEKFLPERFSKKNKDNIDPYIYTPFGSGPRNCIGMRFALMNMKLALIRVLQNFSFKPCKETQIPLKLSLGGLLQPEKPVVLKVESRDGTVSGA
Method: To examine the potential for time-dependent and direct competitive CYP3A4 inhibition, the reaction mixture was prepared with a human liver microsome concentration of 0.1 mg/mL. GE81112A was added to final concentrations of 50, 25, 10, 5, 2, 0.4, and 0.08 μM. Mixtures were brought to 37°C, with the addition of an NADPH-generating system (EDTA, 1 mM; MgCl2, 3 mM; β-NADPH, 1 mM; glucose 6-phosphate, 5 mM final concentration) in water to one set of reaction mixtures and water to a second set of reaction mixtures. The reaction mixtures were preincubated for 45 min. A CYP isoform-selective substrate (3 μM midazolam or 50 μM testosterone) was added to the reaction mixtures, and NADPH was added to the second set of reaction mixtures for an additional 10-min incubation period. The reactions were stopped by the addition of 200 μL internal standard solution in acetonitrile.
Both incubation plates (for midazolam and testosterone) were centrifuged at 3,000 rpm for 10 min. The samples were analyzed using LC-MS/MS. Parallel analysis of the CYP3A4 substrate midazolam and the CYP3A4 substrate testosterone was performed. The calculations of 50% inhibitory concentration (IC50) values and IC50 shift values were performed by using 4-paratemeter curve fitting.

HepG2 cells = experiment: Cytotoxicity (CellTiter-Glo ATP and neutral red uptake); assay type: cell-based, human; conditions: 24 h; highest concentration with cell viability of >80%
Method: The toxicity of GE81112A toward human hepatocellular carcinoma HepG2 HB-8065 (ATCC) cells and freshly isolated primary Sprague-Dawley rat hepatocytes (Charles River) was assessed by using the CellTiter-Glo ATP-monitoring kit (Promega) and by quantifying the ability to store the dye neutral red (neutral red uptake [NRU] solution; Sigma-Aldrich, St. Louis, MO, USA). The assay was conducted in 96-well microtiter plates in a test volume of 200 μL. GE81112A was tested in an 8-fold 1:2 dilution series with a final concentration range of […]. HepG2 cells or primary hepatocytes were maintained at 37°C in 5% CO2 in DMEM-F-12 medium containing 1% nonessential amino acids, 1% sodium pyruvate, and 10% heat-inactivated FCS. Prior to each test, 100 μL of culture medium was added to each well (each containing about 20,000 cells), and the plates were incubated for 16 h as described above. GE81112A was diluted in culture medium to obtain appropriate concentrations and was added to the wells as six replicates. […] After incubation for 24 h as described above, cell viability was calculated either by cell lysis and subsequent luminometric quantification of the ATP concentration in each sample or by measurement of the amount of neutral red taken up by the cells. NRU was measured at 540 nm (Tecan Genios Pro) after 3 h of incubation with NRU solution and subsequent cell lysis. […]

Q: What does the source list for NC(=O)OC[C@@H](O)C[C@H](NC(=O)[C@H]1NCCC[C@H]1O)C(=O)N[C@@H](Cc1c[nH]cn1)C(=O)N[C@H](C(=O)O)[C@H](O)c1cnc(Cl)[nH]1 [GE81112A]?
A: Oxidative metabolic lability ([1]; human liver microsomes): low; Oxidative metabolic lability ([1]; mouse liver microsomes): low; Oxidative metabolic lability ([1]; rat liver microsomes): low; Mutagenicity [2]: no mutagenicity; Tissue/plasma ratio, kidney [3]: 3.00; Tissue/plasma ratio, liver [3]: 20 and 20.6; Tissue/plasma ratio, lung [3]: 0.515; Proportion of dose recovered in urine ([3]; over 24 h): 30%; clearance ([3]; male, Swiss, mouse, in vivo, iv): 12.2 mL/min/kg; Vd ([3]; male, Swiss, mouse, in vivo, iv, read-out: Volume of distribution): 0.321 L/kg; half-life ([3]; male, Swiss, mouse, plasma, iv): 4.5 h; dose excreted ([3]; male, Swiss, mouse, urine, iv, over 24 h, read-out: Proportion of dose recovered in urine): 30%; Direct competitive inhibition of CYPA4 (CYP3A4): not observed; Time-dependent inhibition of CYPA4 (CYP3A4): not observed; No observed effect concentration (NOEC) (HepG2 cells): 15.6 µM

From publication PMC10269895 (Microbiology Spectrum, 2023)
